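Where inhibition never reached the appropriate level, the endpoint shown equals the highest concentration tested. Otherwise, values were interpolated linearly from a five-concentration, 48-hour dose response in 96-well plates. The concentration for full growth arrest is given as TGI.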
Legend:
Assay in all cases: inhibition of tumour cell growth, NCI panel, 48 h
UO-31 renal = system: UO-31 renal
OVCAR-8 ovarian = system: OVCAR-8 ovarian
IGROV1 ovarian = system: IGROV1 ovarian
786-0 renal = system: 786-0 renal
OVCAR-3 ovarian = system: OVCAR-3 ovarian
M14 melanoma = system: M14 melanoma
SF-295 CNS = system: SF-295 CNS
MALME-3M melanoma = system: MALME-3M melanoma
NCI-H226 lung = system: NCI-H226 lung
SW-620 colon = system: SW-620 colon
COLO 205 colon = system: COLO 205 colon
NCI-H23 lung = system: NCI-H23 lung
OVCAR-5 ovarian = system: OVCAR-5 ovarian
SK-OV-3 ovarian = system: SK-OV-3 ovarian
CCRF-CEM leukemia = system: CCRF-CEM leukemia
SNB-75 CNS = system: SNB-75 CNS
UACC-62 melanoma = system: UACC-62 melanoma
SK-MEL-28 melanoma = system: SK-MEL-28 melanoma
MCF7 breast = system: MCF7 breast
MDA-N = system: MDA-N

| Compound | TGI (UO-31 renal) [µM] | TGI (OVCAR-8 ovarian) [µM] | TGI (IGROV1 ovarian) [µM] | TGI (786-0 renal) [µM] | TGI (OVCAR-3 ovarian) [µM] | TGI (M14 melanoma) [µM] | TGI (SF-295 CNS) [µM] | TGI (MALME-3M melanoma) [µM] | TGI (NCI-H226 lung) [µM] | TGI (SW-620 colon) [µM] | TGI (COLO 205 colon) [µM] | TGI (NCI-H23 lung) [µM] | TGI (OVCAR-5 ovarian) [µM] | TGI (SK-OV-3 ovarian) [µM] | TGI (CCRF-CEM leukemia) [µM] | TGI (SNB-75 CNS) [µM] | TGI (UACC-62 melanoma) [µM] | TGI (SK-MEL-28 melanoma) [µM] | TGI (MCF7 breast) [µM] | TGI (MDA-N) [µM] |
| --- | --- | --- | --- | --- | --- | --- | --- | --- | --- | --- | --- | --- | --- | --- | --- | --- | --- | --- | --- | --- |
| Cc1cc(N(CCC#N)CCC#N)ccc1/C=C(\NC(=O)/C=C/c1ccccc1)C(N)=O | > 100 | > 100 | > 100 | > 100 | > 100 | > 100 | > 100 | > 100 | > 100 | > 100 | > 100 | > 100 | > 100 | > 100 | > 100 | > 100 | > 100 | > 100 | – | – |
| CC1(C)C[C@@H]2C1CCC1(C)CC2(O)CC[C@H]1O (stereo not given in full) | > 100 | > 100 | > 100 | > 100 | > 100 | > 100 | > 100 | > 100 | > 100 | > 100 | > 100 | > 100 | > 100 | > 100 | > 100 | > 100 | > 100 | > 100 | > 100 | – |
| CCOC(=O)CC(C)C1(C(=O)OCC)CCCCC1=O (stereo not given) | > 100 | > 100 | > 100 | > 100 | > 100 | > 100 | > 100 | > 100 | > 100 | – | > 100 | – | > 100 | > 100 | > 100 | > 100 | > 100 | > 100 | – | – |
| CC(=O)O[C@H]1C(=O)[C@@]2(C)[C@H]([C@H](OC(=O)c3ccoc3)[C@]3(O)C[C@H](OC(=O)[C@H](O)[C@@H](NC(=O)c4ccccc4)c4ccccc4)C(C)=C1C3(C)C)[C@]1(OC(C)=O)CO[C@@H]1C[C@@H]2O | > 12.5 | > 12.5 | > 12.5 | > 12.5 | 0.752 | > 12.5 | > 12.5 | – | – | > 12.5 | – | > 12.5 | > 12.5 | > 3.15 | > 2.88 | 2.38 | > 12.5 | > 12.5 | > 12.5 | – |
| CCOC(=O)c1c(N2CCOCC2)[nH]c(=O)c(C(c2c(Cl)cccc2Cl)c2c(O)c(C(=O)OCC)c(N3CCOCC3)[nH]c2=O)c1O | 6.37 | 20.5 | 15 | 6.47 | 12.1 | 5.15 | 30.6 | 7.91 | 27.3 | 3.11 | 14.9 | 21.8 | 27.5 | 24.9 | 3.56 | 15.6 | 20 | 4.19 | 6.63 | – |
| CC(C)OC(=O)/C=C/C(=O)O/C=C/[N+](=O)[O-] | > 100 | > 100 | 63 | > 100 | > 100 | > 100 | > 100 | 63.7 | > 100 | > 100 | 38.3 | > 100 | > 100 | > 100 | – | – | 84.7 | > 100 | 54.9 | – |
| CC1=CCC(O)C=CC(C)C(O)C(C)C=C(C)C(=O)c2c(O)c(C)cc3c2C(=O)C(N)=C(NC(=O)/C=C\C=C/C=CC(C)C(O)CC1=O)C3=O (stereo not given) | > 100 | > 100 | > 100 | > 100 | > 100 | > 100 | > 100 | 82.7 | > 100 | > 100 | > 100 | > 100 | > 100 | > 100 | > 100 | > 100 | > 100 | > 100 | – | – |
| CC(=O)O[C@H]1C(=O)[C@@]2(C)C(C(OC(=O)c3ccccc3)[C@]3(O)CC(OC(=O)C(O)C(NC(=O)c4ccc(C(F)(F)F)cc4)c4ccccc4)C(C)=C1C3(C)C)[C@]1(OC(C)=O)CO[C@@H]1C[C@@H]2O (stereo not given in full) | – | 2.44 | > 37.5 | 5.58 | 0.194 | 0.485 | 1.79 | 13.7 | 4.96 | 0.763 | 0.153 | 1.06 | 3.95 | 0.946 | 15.5 | 0.00891 | 0.269 | 17.8 | – | – |
| COC(=O)CC1N=C(NC#N)N(CCc2c[nH]c3ccccc23)C1=O (stereo not given) | > 100 | > 100 | > 100 | > 100 | > 100 | > 100 | > 100 | – | > 100 | > 100 | > 100 | > 100 | > 100 | > 100 | > 100 | > 100 | > 100 | > 100 | – | – |
| CCN(CC)C1CC(O[C@H]2C[C@](O)(C(=O)CO)Cc3c(O)c4c(c(O)c32)C(=O)c2c(OC)cccc2C4=O)OC(C)C1O (stereo not given in full) | 0.264 | 0.565 | 4.66 | 0.541 | 0.77 | 0.31 | 0.468 | 0.166 | 0.044 | 0.328 | 0.193 | 0.154 | 0.561 | 9.62 | 1.41 | 0.184 | 0.0968 | 0.216 | – | – |
| Cc1ccc([N+](=O)[O-])c2c(NCCC[N+](C)(C)[O-])c3ccccc3nc12 | 42.6 | 49.1 | > 23.9 | 6.72 | > 41.3 | 7.42 | > 100 | 2.78 | 5.17 | > 72.6 | 2.56 | 3.41 | 10.2 | > 100 | > 30.8 | 2.49 | 3.4 | 17 | 7.66 | – |
| Cc1cc(NS(=O)(=O)c2ccc(Nc3c4ccccc4nc4c(C(=O)N5CCN(CCO)CC5)cccc34)cc2)no1 | > 100 | > 100 | > 100 | > 100 | > 100 | > 100 | > 100 | > 100 | > 100 | > 100 | > 100 | > 100 | > 100 | > 100 | > 100 | > 100 | > 100 | > 100 | – | – |
| O=C1NC2O[C@H](CNC(=O)c3cc(Br)c[nH]3)CC2(O)N1 (mixture of isomers) | > 100 | > 100 | > 100 | > 100 | > 100 | > 100 | > 100 | > 100 | > 100 | > 100 | > 100 | > 100 | > 100 | > 100 | – | > 100 | > 100 | > 100 | > 100 | – |
| C[Si](C)(C)OC1CC(=O)OC1n1cc(F)c(=O)[nH]c1=O (stereo not given) | > 100 | > 100 | > 100 | > 100 | > 100 | > 100 | > 100 | > 100 | > 100 | > 56 | > 100 | > 100 | > 100 | > 100 | > 96.4 | > 100 | > 100 | > 100 | – | – |
| O=[N+]([O-])c1ccc(S(=O)(=O)n2c3ccc(Br)cc3c3nc4ccccc4nc32)cc1 | > 100 | > 100 | > 100 | > 100 | > 100 | > 100 | > 100 | – | > 100 | > 100 | > 100 | > 100 | > 100 | – | > 100 | > 100 | > 100 | > 100 | – | > 100 |
| CN(C)CC1CCCC(CN(C)C)C1OC(=O)c1ccccc1 (stereo not given) | > 100 | > 100 | > 100 | > 100 | > 100 | > 100 | > 100 | > 100 | > 100 | > 100 | > 100 | > 100 | > 100 | > 100 | > 100 | > 100 | > 100 | > 100 | – | – |
| O=c1cc(-c2ccc(Oc3ccccc3)cc2)[nH]c2cc3c(cc12)OCO3 | > 100 | > 100 | > 100 | > 100 | > 100 | > 100 | > 100 | > 100 | > 100 | > 100 | > 100 | > 100 | – | – | > 100 | > 100 | > 100 | > 100 | – | – |
| O=C(Nc1ccccc1-c1nc2ccccc2[nH]c1=O)c1ccccc1 | 38.3 | 66.1 | 70.6 | 31 | 44 | > 100 | 47.4 | 92.7 | 60.1 | 73.7 | > 100 | > 100 | > 100 | 40.5 | > 100 | 30.8 | 75.2 | > 100 | – | – |
| CC1(C)OC(=O)N(c2ccccc2)C12C=Cc1cc([N+](=O)[O-])ccc1O2 (stereo not given) | > 100 | > 100 | > 100 | > 100 | > 100 | > 100 | > 100 | – | > 100 | > 100 | > 100 | > 100 | > 100 | 66.4 | 99 | > 100 | > 100 | > 100 | – | 50.8 |
| O=C(CC(=O)n1nc(-c2ccccc2)c(N=Nc2ccc(Cl)cc2)c1-c1ccccc1)Nc1ccc(Cl)cc1 | > 100 | > 100 | > 100 | > 61.1 | > 100 | > 100 | > 100 | > 100 | > 100 | > 62.6 | > 63.9 | > 100 | > 100 | > 100 | > 62.8 | > 100 | > 100 | > 100 | – | – |
| Nc1nc([O-])c2c(n1)[n+](C1OC(CO)C(O)C1O)cn2CCO (stereo not given) | > 100 | > 100 | > 100 | > 100 | > 100 | > 100 | > 100 | > 100 | > 100 | > 100 | > 100 | – | > 100 | > 100 | > 100 | > 100 | > 100 | > 100 | – | – |
| CCCc1c(O)nc(Nc2nc3ccccc3[nH]2)[nH]c1=O | > 100 | > 100 | > 100 | > 100 | – | > 100 | > 100 | > 100 | > 100 | > 100 | > 100 | > 100 | > 100 | > 100 | > 100 | > 100 | > 100 | – | – | > 100 |
| CN=C(SC)N(C)c1nc(=[N+](C)C)ss1 | > 100 | > 100 | > 100 | > 100 | – | > 100 | > 100 | – | > 100 | > 100 | – | > 100 | > 100 | > 100 | > 100 | > 100 | > 100 | > 100 | – | – |
| O=C(Nc1nnc(-c2ccc(Cl)cc2)o1)C(SC(=S)N1CCOCC1)c1ccccc1 (stereo not given) | 30 | > 100 | > 100 | > 100 | 30.2 | > 100 | 94.4 | > 100 | 56.4 | > 100 | 28.8 | 70.6 | 88.2 | > 100 | > 100 | > 100 | – | > 100 | > 100 | – |
